According to patent US8283479B2, “CXCR2 inhibitors” (Sanofi-Aventis Deutschland GmbH, priority 2004, dated 2012):

These compounds were tested against T1, human CXCR2 (Homo sapiens, UniProt P25025) (assay: CXCR2 inhibition: calcium fluorescence assay (FLIPR)). Settings: CHO-K1 cells stably transfected with human CXCR2 and Gα16; Fluo-4; % inhibition of calcium response to chemokine (10-100 nM).
T1 construct: expressed in transfected cells; host or cells: CHO-K1
T1 sequence (P25025 1-360): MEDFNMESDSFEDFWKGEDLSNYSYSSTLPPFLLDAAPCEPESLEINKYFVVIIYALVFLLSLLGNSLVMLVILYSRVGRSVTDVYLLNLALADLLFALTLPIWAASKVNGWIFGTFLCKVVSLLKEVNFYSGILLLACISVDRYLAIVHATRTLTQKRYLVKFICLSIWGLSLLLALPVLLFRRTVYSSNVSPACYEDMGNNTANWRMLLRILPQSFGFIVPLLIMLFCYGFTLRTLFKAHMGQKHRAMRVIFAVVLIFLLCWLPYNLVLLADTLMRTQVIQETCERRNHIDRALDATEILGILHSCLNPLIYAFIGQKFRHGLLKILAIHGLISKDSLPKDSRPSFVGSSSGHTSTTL
Assay type: cell-based
Excerpt: Determination of CXCR2 Inhibition: Calcium Fluorescence Assay (FLIPR)
The assay is based on the detection of intracellular calcium changes detected by the selective, calcium-chelating dye, Fluo-4 (Molecular Probes). A large fluorescence intensity increase is observed upon calcium association with Fluo-4. The dye is delivered to the cell interior using an acetoxymethylester form of Fluo-4, where the intracellular esterase activity results in the charged species being released and trapped within the cytoplasm of the cell. […] By co-expressing the CXCR2 receptor and the promiscuous Gα16 protein, activation of this chemokine receptor is directed into this phospholipase C cascade resulting in intracellular calcium mobilization.
The CHO—K1 cells stably transfected with human CXCR2 and the promiscuous Gα16 protein were maintained in a log phase of growth at 37° C. and 5% CO2 in the following media: Iscove's, 10% FBS, 1× Penicillin-Streptomycin, 400 μg/mL G418 and 350 μg/mL Zeocin. Approximately 24-48 hours prior to the assay, 20,000-30,000 cells/well were plated onto a 96-well black/clear bottomed assay plate (Becton Dickinson) with a well volume of 180 μl. For dye-loading the culture medium was carefully removed and replaced by 100 μl/well dye solution (4 μM Fluo-4 in 135 mM NaCl, 5 mM KCl, 1 mM magnesium sulphate, 5 mM glucose, 20 mM Hepes, 2.5 mM probenecid; pH 7.4). Cells were incubated for 1 h at 37° C., and then washed 3× with buffer. After washing 90 μl buffer/well were left. Increasing concentrations of compound was added in 45 μl buffer (4× concentrated) followed by 10 min incubation at 37° C. Then the chemokine (10-100 nM) was applied in 45 μl buffer (4× concentrated) and the measurement performed for 2 min. The IC50 value of a compound was determined by calculation of % inhibition of total calcium response to the chemokine.
With CC(C)(NC(=O)c1ccc2ccccc2c1OCc1ccc2nonc2c1)C(=O)O [Example 5, 2-{[1-(Benzo[1,2,5]oxadiazol-5-ylmethoxy)-naphthalene-2-carbonyl]-amino}-2-methyl-propionic acid] the IC50 was 3.21 µM.
CC(C)(NC(=O)c1cc(Br)c2ccccc2c1OCc1ccc(OC(F)(F)F)cc1)C(=O)O [Example 42, 2-{[4-Bromo-1-(4-trifluoromethoxy-benzyloxy)-naphthalene-2-carbonyl]-amino}-2-methyl-propionic acid] was tested, and the IC50 was 0.972 µM.
CC(NC(=O)c1ccc2ccccc2c1OCc1ccc(C(F)(F)F)cc1)C(=O)O (centres unmarked) [Example 110, 2-{[1-(4-Trifluoromethyl-benzyloxy)-naphthalene-2-carbonyl]-amino}-propionic acid] gave an IC50 of 0.7 µM.
Work on CCC(C)(NC(=O)c1ccc2ccccc2c1OCc1ccc(OC(F)(F)F)c(Cl)c1)C(=O)O (centres unmarked) [Example 105, 2-{[1-(3-Chloro-4-trifluoromethoxy-benzyloxy)-naphthalene-2-carbonyl]-amino}-2-methyl-butyric acid] yielded an IC50 of 1.62 µM.
Work on CCC(C)(NC(=O)c1ccc2ccccc2c1OCc1cc2ccccc2s1)C(=O)O (centres unmarked) [Example 74, 2-{[1-(Benzo[b]thiophen-2-ylmethoxy)-naphthalene-2-carbonyl]-amino}-2-methyl-butyric acid] yielded an IC50 of 0.98 µM.
With CC(C)C(C)(NC(=O)c1sc2ccccc2c1OCc1ccc(C(F)(F)F)cc1)C(=O)O (centres unmarked) [Example 131, 2,3-Dimethyl-2-{[3-(4-trifluoromethyl-benzyloxy)-benzo[b]thiophene-2-carbonyl]-amino}-butyric acid] the IC50 was 0.2 µM.
CC(C)(NC(=O)c1sc2ccccc2c1OCc1ccc(C(F)(F)F)nc1)C(=O)O [Example 120, 2-Methyl-2-{[3-(6-trifluoromethyl-pyridin-3-ylmethoxy)-benzo[b]thiophene-2-carbonyl]-amino}-propionic acid] gave an IC50 of 4.45 µM.
Work on O=C(NC1(C(=O)O)CCCC1)c1ccc2ccccc2c1OCc1ccc(C(F)(F)F)cc1 [Example 127, 1-{[1-(4-Trifluoromethyl-benzyloxy)-naphthalene-2-carbonyl]-amino}-cyclopentanecarboxylic acid] yielded an IC50 of 0.996 µM.
